Among the test systems are EKVX NSCLC; HOP-62 NSCLC; HOP-92 NSCLC; LOX IMVI melanoma; NCI/ADR-RES ovarian; RXF 393 renal; SK-MEL-2 melanoma; UO-31 renal; ACHN renal.
Holding throughout (test): inhibition of tumour cell growth, NCI panel, 48 h

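Following 48 hours of exposure in 96-well plates, responses at five concentrations were used to interpolate endpoints linearly. GI50: concentration for 50% inhibition of growth. TGI: total growth inhibition.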 Bounds are passed on as bounds.

With `COc1cc2c3c(n(CCCN(CCCN(CCCn4c5c(c6ccccc6c4=O)C(=O)c4ccccc4-5)C(=O)OC(C)(C)C)C(=O)OC(C)(C)C)c(=O)c2cc1OC)-c1cc2c(cc1C3=O)OCO2`, the GI50 is 11.8 µM with EKVX NSCLC; > 100 µM in the test on HOP-62 NSCLC; > 100 µM in the test on HOP-92 NSCLC; 26.5 µM in the test on LOX IMVI melanoma; > 100 µM in the test with NCI/ADR-RES ovarian; > 100 µM in the test with RXF 393 renal. The GI50 in the test on SK-MEL-2 melanoma and with UO-31 renal was > 100 µM throughout. Further, the TGI in the test on EKVX NSCLC was 34 µM; in the test with HOP-62 NSCLC, > 100 µM; in the test on HOP-92 NSCLC it was > 100 µM; with LOX IMVI melanoma, > 100 µM; with NCI/ADR-RES ovarian it was > 100 µM; in the test with RXF 393 renal, > 100 µM. Also, the TGI with SK-MEL-2 melanoma and with UO-31 renal was > 100 µM throughout.

Regarding `CC1CCC2C(C)C(=O)OC3OC4(C)CCC1C32OO4` (stereo not drawn), the GI50 in the test with ACHN renal, in the test on HOP-62 NSCLC and with HOP-92 NSCLC was > 100 µM in each case. For the same compound, the TGI with ACHN renal, with EKVX NSCLC, in the test on HOP-62 NSCLC, with HOP-92 NSCLC, in the test with LOX IMVI melanoma and in the test on RXF 393 renal was > 100 µM throughout. Moreover, the TGI in the test with SK-MEL-2 melanoma and in the test on UO-31 renal was > 100 µM in each case.

For the compound `O=C(NC(=Nc1ccccc1)SCSC(=Nc1ccccc1)NC(=O)c1ccco1)c1ccco1`, the TGI in the test with ACHN renal is > 100 µM; in the test with EKVX NSCLC it was > 100 µM; in the test with HOP-62 NSCLC, 44.9 µM; with HOP-92 NSCLC, 53.7 µM; in the test on LOX IMVI melanoma it was > 100 µM; with RXF 393 renal, 55 µM. Also, the TGI in the test on SK-MEL-2 melanoma and in the test on UO-31 renal was > 100 µM in each case.

As to `O=C(C=Nc1ccccc1C(=O)[O-])c1cccs1.O=C(C=Nc1ccccc1C(=O)[O-])c1cccs1.[Ni+2]`, the TGI in the test on ACHN renal, in the test with HOP-62 NSCLC, in the test on HOP-92 NSCLC, in the test with LOX IMVI melanoma, in the test on SK-MEL-2 melanoma and in the test with UO-31 renal was > 100 µM throughout.

On to `O=C(Cc1ccccc1[N+](=O)[O-])C(CO)c1ccccc1[N+](=O)[O-]` (stereo not drawn), for which the TGI with ACHN renal was > 100 µM; with EKVX NSCLC, > 100 µM; in the test with HOP-62 NSCLC, > 100 µM; in the test on HOP-92 NSCLC it was 93.3 µM; with LOX IMVI melanoma, > 100 µM; with RXF 393 renal it was > 100 µM. Also, the TGI in the test with SK-MEL-2 melanoma and in the test on UO-31 renal was > 100 µM in each case.

With `Nc1nc(N)c(CCCCc2ccccc2)c(C=O)n1`, the TGI in the test on ACHN renal is 51.6 µM; in the test with EKVX NSCLC it was 46.4 µM; in the test with HOP-62 NSCLC, > 100 µM; in the test with LOX IMVI melanoma it was 32.8 µM; in the test on SK-MEL-2 melanoma, 40.3 µM; in the test on UO-31 renal, 45.4 µM.

For the compound `COc1ccc2c(c1)[n+]([O-])c(-c1cccc(Cl)c1)c(N)[n+]2[O-]`, the TGI in the test on ACHN renal, in the test with EKVX NSCLC, in the test on HOP-62 NSCLC, with HOP-92 NSCLC, in the test with RXF 393 renal and in the test with SK-MEL-2 melanoma was > 100 µM in each case. Also, the TGI with UO-31 renal is > 100 µM.

Take `COC(=O)c1cc(NC(=O)c2cc(NC(=O)c3cc([N+](=O)[O-])n(C)c3)cn2C)cn1C`: the GI50 was 2.53 µM with ACHN renal; > 100 µM in the test with EKVX NSCLC; 6.4 µM in the test on HOP-62 NSCLC; 13.2 µM in the test with HOP-92 NSCLC; 10.7 µM with LOX IMVI melanoma; > 100 µM in the test on NCI/ADR-RES ovarian. Also, the GI50 in the test with RXF 393 renal, in the test with SK-MEL-2 melanoma and in the test on UO-31 renal was > 100 µM throughout. For the same compound, the TGI in the test with ACHN renal is 53.5 µM; in the test with EKVX NSCLC, > 100 µM; in the test on HOP-62 NSCLC, > 100 µM; in the test on HOP-92 NSCLC, 85.2 µM; in the test with LOX IMVI melanoma, 85.9 µM; in the test with NCI/ADR-RES ovarian it was > 100 µM. Also, the TGI with RXF 393 renal, in the test with SK-MEL-2 melanoma and in the test on UO-31 renal was > 100 µM in each case.

`O=[N+]([O-])c1cc(-c2nc(=S)[nH][nH]2)ccc1O`: the TGI in the test with ACHN renal, with EKVX NSCLC, with HOP-62 NSCLC, with LOX IMVI melanoma, with RXF 393 renal and in the test on SK-MEL-2 melanoma was > 100 µM each time. Moreover, the TGI in the test with UO-31 renal was > 100 µM.

For the compound `O=C(CCC(=O)Nc1ccc(Cl)c(Cl)c1)CC(=O)c1ccc2ccccc2c1`, the TGI with ACHN renal, with EKVX NSCLC, with HOP-62 NSCLC, with HOP-92 NSCLC, in the test on LOX IMVI melanoma and in the test on RXF 393 renal was > 100 µM each time. In addition, the TGI in the test with SK-MEL-2 melanoma and with UO-31 renal was > 100 µM throughout.

With `O=C1C=C(Nc2ccccc2C(=O)CC(=O)C(=O)Nc2ccc(Cl)cc2)c2ccccc2C1=O`, the TGI in the test on ACHN renal was 55.1 µM; with EKVX NSCLC, 99 µM; with HOP-62 NSCLC, 44.5 µM; in the test with HOP-92 NSCLC it was > 100 µM; in the test on LOX IMVI melanoma, 4.98 µM; in the test with RXF 393 renal, 45.9 µM. Also, the TGI stood at 34.3 µM in the test on SK-MEL-2 melanoma and 65.6 µM in the test on UO-31 renal.

On to `COc1ccc2c(c1)Oc1cc(O)ccc1[C@H]2c1ccccc1C(=O)NC(C)c1ccccc1` (stereo partly drawn), for which the TGI worked out at 29.8 µM in the test on ACHN renal; 33.5 µM in the test on EKVX NSCLC; 44.6 µM in the test on HOP-62 NSCLC; 31.6 µM in the test on LOX IMVI melanoma; 42 µM in the test with RXF 393 renal; 82.2 µM in the test with SK-MEL-2 melanoma. The TGI with UO-31 renal came to 25.5 µM.

For the compound `O=C(O)CN(c1ccccc1)S(=O)(=O)c1cccc([N+](=O)[O-])c1`, the TGI in the test on ACHN renal, in the test on EKVX NSCLC, in the test with HOP-92 NSCLC, in the test with LOX IMVI melanoma, with RXF 393 renal and in the test with SK-MEL-2 melanoma was > 100 µM throughout. The TGI in the test with UO-31 renal is > 100 µM.

For the compound `O=C(COc1ccccc1Cl)N1N=C(c2ccccc2)CC1(O)c1ccccc1` (stereo not drawn), the TGI amounted to 55.7 µM with ACHN renal; 28.5 µM in the test on HOP-62 NSCLC; 42.3 µM with HOP-92 NSCLC; 30.4 µM with LOX IMVI melanoma; 36.8 µM in the test on SK-MEL-2 melanoma; 35.9 µM in the test on UO-31 renal.

These data come from PubChem BioAssay (NCI).
